Series [1] has as its system bed bugs. Nature of the series: Toxicity and durability of toxicity of undiluted DMSO on filter paper in arenas (Example 1A). Type of series: in vivo. As for the experimental part: 0.1 milliliters of Fisher Biotech Molecular Biology Grade 99.7% DMSO (CAS#67-68-5) was applied to each of five 3.5 cm diameter disks of Fisherbrand Qualitative P8 filter paper. […] The arenas were placed in an incubator set to maintain a temperature of 22° C.
At the end of 24 hours, timed from the initial placement of the bed bugs on the filter papers, all of the arenas were removed from the incubator and opened and the bed bugs were examined. […] The bed bugs in the control jar were all still alive.
Without removing the filter paper, the dead bed bugs in the 5 arenas were removed and replaced by the same number (10) of live bed bugs in each arena. The arenas were again placed in the incubator and re-examined 24 hours later. The replacement bed bugs in the 5 arenas were also all dead.
All of the bed bugs in the control jar were all still alive at the end of the last testing interval.

Series [2] deals with bed bugs. The series can be described thus: Contact toxicity to bed bugs, general findings in the description. Format: in vivo.
For series [3], the system named is bed bugs. The series can be described thus: Repellency to bed bugs, general finding. Type of series: in vivo. The following applies: with or without additional insecticidal active ingredient, any DMSO concentration.
The subject of the next series is humans and animals. The following applies: even when applied directly to a subject's skin; cited from earlier work.

Structures are written as SMILES.

Take `C[S+](C)[O-]` [DMSO, dimethyl sulfoxide]: the “bed bug mortality at end of 24 hours” value in the series on bed bugs [1] (0.1 mL 99.7% DMSO on 3.5 cm filter paper, 5 arenas, 10 bed bugs each, 22° C., first 24 hours) is on record as “All of the bed bugs in all 5 of the jars containing DMSO treated filter paper were dead”. Also, the “mortality at end of each 24 hour interval, three more replications” value in the series on bed bugs [1] (same filter paper, replications 3 to 5 at 24 hour intervals) is “all bed bugs found to be dead”. In addition, in the series on bed bugs [1] (same filter paper, second 24 hour interval, 10 live bed bugs per arena), the “mortality of replacement bed bugs 24 hours later” value is given as “also all dead”. In addition, in the series on bed bugs [2] (DMSO alone, no insecticidal active ingredient or synergist), the “toxicity to bed bugs upon contact” value is recorded as “highly toxic to bed bugs upon contact”. Also, the repellency effects entry in the series on bed bugs [3] is given as “not accompanied by any repellency effects”. Further, the “toxicity in exposure to humans and animals” value with humans and animals was “low toxicity”.
`CCCCCCCCCCCCN1CCCCCC1=O` [laurocapram, reference compound]: in the series on bed bugs [2] (as penetration enhancer in insecticidal formulations), the toxicity-enhancing characteristics entry is on record as “exhibits toxicity-enhancing characteristics similar to DMSO”.

Values taken from US9763443B2, “Control of bed bugs” (Ensystex Inc., priority 2011, dated 2017).
